Source: US12319736B2, “Combination of antibody-drug conjugate and immune checkpoint inhibitor” (DAIICHI SANKYO COMPANY, LIMITED, priority 2016, dated 2025)

Key:
[1] = tested on: CT26.WT-hHER2 cells; assay: Analysis of in vitro cancer cells, MHC class I by flow cytometry (Evaluation Example 8); type: cell-based, mouse; conditions: 0.0625-1 μM, 24 hours, vs DMSO, Dunnett's test
Description: (§1) To culture solution for CT26.WT-hHER2 cells, the compound (A) was added to a concentration of 0.0625 μM, 0.125 μM, 0.25 μM, 0.5 μM, or 1 μM. For a control, DMSO in a quantity equal to that of the compound (A) was added. After 24 hours, staining was performed by using PE labeled anti-human Her2/neu (340552, Becton Dickinson) and FITC labeled anti-mouse H-2Dd (110606, BioLegend), and expression levels of MHC class I on cancer cells were determined with flow cytometry. Dead cells had been stained with a LIVE/DEAD Fixable Near-IR Dead Cell Stain Kit purchased from Thermo Fisher Scientific, and excluded from the analysis. The mean fluorescence intensity (MFI) of MHC class I was calculated, and MFI for cells treated with an Isotype control was subtracted from the MFI for stained cells, and the resulting value was used as adjusted MFI. Comparison between the control group and the compound (A) group was performed by using Dunnett's test, P values were expressed as numerical values to the fourth decimal place, and values of P<0.05 (two-tailed test) were regarded as significant differences.

[2] = tested on: bone marrow-derived dendritic cells; assay: Effect on in vitro dendritic cells, flow cytometry (Evaluation Example 5); type: cell-based, mouse; conditions: 0.0625-1 μM, 24 hours, compared with DMSO
Description: BALB/c mice were euthanized, and bone marrow cells were then separated from each femur, and cultured with an RPMI 1640 medium containing 10% FBS, 55 μM 2-mercaptoethanol, 100 U/mL penicillin, […], 1 mM sodium pyruvate, 1×non-essential amino acid, 2 mM L-glutamine, and 10 ng/mL mouse GM-CSF for 11 days to induce bone marrow-derived dendritic cells. To the culture solution for the induced dendritic cells, the compound (A) was added to a concentration of 0.0625 μM, 0.125 μM, 0.25 μM, 0.5 μM, or 1 μM. For a control, DMSO in a quantity equal to that of the compound (A) was added. After 24 hours, staining was performed by using a Pacific Blue labeled anti-mouse CD45 Antibody (103126, BioLegend), PE labeled anti-mouse CD86 (B7-2) (553692, Becton Dickinson), APC labeled anti-mouse CD11c (550261, Becton Dickinson), and FITC labeled anti-mouse MHC Class II (I-A/I-E) (11-5321-85, Thermo Fisher Scientific), and analysis was performed by using an FACS Canto II. Dead cells had been stained with a LIVE/DEAD Fixable Near-IR Dead Cell Stain Kit purchased from Thermo Fisher Scientific, and excluded from the analysis.

[3] = target: T1, topoisomerase I (Homo sapiens, UniProt P11387); conditions: Ogitani Y. et al., Clinical Cancer Research 2016; cited from earlier work
T1 sequence (P11387 1-765): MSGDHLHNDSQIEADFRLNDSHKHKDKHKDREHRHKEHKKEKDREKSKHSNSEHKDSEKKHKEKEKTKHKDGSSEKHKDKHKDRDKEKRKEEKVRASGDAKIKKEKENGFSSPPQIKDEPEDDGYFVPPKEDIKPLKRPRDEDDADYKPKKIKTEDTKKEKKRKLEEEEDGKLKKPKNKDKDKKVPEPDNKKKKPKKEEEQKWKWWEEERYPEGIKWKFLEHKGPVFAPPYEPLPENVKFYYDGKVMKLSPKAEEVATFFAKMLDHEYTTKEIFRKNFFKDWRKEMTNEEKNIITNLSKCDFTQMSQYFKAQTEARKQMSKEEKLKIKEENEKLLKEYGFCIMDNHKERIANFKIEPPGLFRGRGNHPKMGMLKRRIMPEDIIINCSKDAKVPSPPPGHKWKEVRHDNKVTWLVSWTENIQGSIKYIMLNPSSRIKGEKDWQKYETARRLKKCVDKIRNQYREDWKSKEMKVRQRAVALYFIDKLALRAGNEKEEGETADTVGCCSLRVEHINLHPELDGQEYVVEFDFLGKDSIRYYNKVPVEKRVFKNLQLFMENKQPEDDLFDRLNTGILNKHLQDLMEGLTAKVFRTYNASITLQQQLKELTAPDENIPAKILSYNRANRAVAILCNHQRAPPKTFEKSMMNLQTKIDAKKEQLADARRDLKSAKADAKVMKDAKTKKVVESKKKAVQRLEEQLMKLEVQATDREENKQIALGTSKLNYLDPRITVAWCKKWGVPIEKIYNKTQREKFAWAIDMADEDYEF

[4] = tested on: CT26.WT-hHER2 cells; assay: Analysis of in vitro cancer cells treated with different compounds, MHC class I (Evaluation Example 17); type: cell-based, mouse; conditions: 20 nM, 100 nM, 500 nM; vs control group, Dunnett's test; agents: compound (A), DM1-SMe, DM4-SMe, MMAE
Description: as §1
Expression levels of MHC class I were determined for cancer cells treated with different compounds. […]

CC[C@@]1(O)C(=O)OCc2c1cc1n(c2=O)Cc2c-1nc1cc(F)c(C)c3c1c2[C@@H](NC(=O)CO)CC3 [compound (A)]
expression level of MHC class I on CT26.WT-hHER2 cells (adjusted MFI) [1]: significantly elevated
expression level of CD86 on CD11c-positive cells [2]: elevated
expression level of MHC class II on CD11c-positive cells [2]: elevated
topoisomerase I inhibitory effect [3]: confirmed to have a topoisomerase I inhibitory effect
expression level of MHC class I on CT26.WT-hHER2 cells [4]: maximum elevation effect
